# From ChEMBL document CHEMBL3745645, “Synthesis, in vitro antitumor activity, dihydrofolate reductase inhibition, DNA intercalation and structure-activity relationship studies of 1,3,5-triazine analogues” (Bioorg Med Chem Lett, 2016)
# Activity calls are given as the source filed them. The rule behind the calls is not given here.
# Tests used:
# [1] = Cytotoxicity against human RXF393 cells at 10 uM after 48 hrs by SRB assay; assay type: functional; conditions: RXF 393, 48 h, read-out: GI
# SN12C = assay: Cytotoxicity against human SN12C cells at 10 uM after 48 hrs by SRB assay; assay type: functional
# [2] = Cytotoxicity against human DU145 cells at 10 uM after 48 hrs by SRB assay; assay type: functional; conditions: DU-145, 48 h, read-out: GI
# MDA-MB-231 = assay: Cytotoxicity against human MDA-MB-231 cells at 10 uM after 48 hrs by SRB assay; assay type: functional
# T47D = assay: Cytotoxicity against human T47D cells at 10 uM after 48 hrs by SRB assay; assay type: functional
# MDA-MB-468 = assay: Cytotoxicity against human MDA-MB-468 cells at 10 uM after 48 hrs by SRB assay; assay type: functional
# CCRF-CEM [3] = assay: Cytotoxicity against human CCRF-CEM cells after 48 hrs by SRB assay; assay type: functional; conditions: for GI50 / TGI: pooled result: one value given for 6 cell lines, strains, targets or settings
# [4] = Cytotoxicity against human HL-60(TB) cells after 48 hrs by SRB assay; assay type: functional; conditions: HL-60, 48 h, read-out: LC50 (the source's name)
# K562 = assay: Cytotoxicity against human K562 cells after 48 hrs by SRB assay; assay type: functional; conditions: K562, 48 h
# [5] = Cytotoxicity against human RPMI8226 cells after 48 hrs by SRB assay; assay type: functional; conditions: RPMI-8226, 48 h, read-out: LC50 (the source's name)
# SR [6] = assay: Cytotoxicity against human SR cells after 48 hrs by SRB assay; assay type: functional
# [7] = Cytotoxicity against human LOXIMVI cells after 48 hrs by SRB assay; assay type: functional; conditions: LOX IMVI, pooled result: one value given for 9 cell lines, strains, targets or settings
# [8] = Cytotoxicity against human IGROV1 cells after 48 hrs by SRB assay; assay type: functional; conditions: IGROV-1, 48 h, pooled result: one value given for 7 cell lines, strains, targets or settings
# [9] = Cytotoxicity against human PC3 cells after 48 hrs by SRB assay; assay type: functional; conditions: PC-3, 48 h; for GI50 / TGI: pooled result: one value given for 2 cell lines, strains, targets or settings
# [10] = Cytotoxicity against human DU145 cells after 48 hrs by SRB assay; assay type: functional; conditions: DU-145, 48 h, read-out: LC50 (the source's name)
# MCF7 = assay: Cytotoxicity against human MCF7 cells after 48 hrs by SRB assay; assay type: functional; conditions: MCF7, 48 h, pooled result: one value given for 6 cell lines, strains, targets or settings
# Dihydrofolate reductase = biological target: T1, Dihydrofolate reductase (Homo sapiens, UniProt P00374); assay: Inhibition of human recombinant DHFR expressed in Escherichia coli by spectrophotometric analysis
# T1 sequence (P00374 whole entry): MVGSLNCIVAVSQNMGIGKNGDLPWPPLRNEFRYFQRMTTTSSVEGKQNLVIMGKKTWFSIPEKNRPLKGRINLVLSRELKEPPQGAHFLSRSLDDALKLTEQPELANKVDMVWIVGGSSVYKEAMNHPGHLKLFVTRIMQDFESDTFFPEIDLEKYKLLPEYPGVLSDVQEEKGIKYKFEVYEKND
# CCRF-CEM [11] = assay: Cytotoxicity against human CCRF-CEM cells at 10 uM after 48 hrs by SRB assay; assay type: functional
# [12] = Cytotoxicity against human MOLT4 cells at 10 uM after 48 hrs by SRB assay; assay type: functional; conditions: MOLT-4, 48 h, read-out: GI
# SR [13] = assay: Cytotoxicity against human SR cells at 10 uM after 48 hrs by SRB assay; assay type: functional
# [14] = Cytotoxicity against human HOP92 cells at 10 uM after 48 hrs by SRB assay; assay type: functional; conditions: HOP-92, 48 h, read-out: GI
# NCI-H226 = assay: Cytotoxicity against human NCI-H226 cells at 10 uM after 48 hrs by SRB assay; assay type: functional
# NCI-H322M = assay: Cytotoxicity against human NCI-H322M cells at 10 uM after 48 hrs by SRB assay; assay type: functional; conditions: read-out: GI
# NCI-H460 = assay: Cytotoxicity against human NCI-H460 cells at 10 uM after 48 hrs by SRB assay; assay type: functional
# NCI-H522 = assay: Cytotoxicity against human NCI-H522 cells at 10 uM after 48 hrs by SRB assay; assay type: functional
# [15] = Cytotoxicity against human COLO205 cells at 10 uM after 48 hrs by SRB assay; assay type: functional; conditions: COLO 205, 48 h, read-out: GI
# HT-29 = assay: Cytotoxicity against human HT-29 cells at 10 uM after 48 hrs by SRB assay; assay type: functional
# KM12 = assay: Cytotoxicity against human KM12 cells at 10 uM after 48 hrs by SRB assay; assay type: functional
# [16] = Cytotoxicity against human SW620 cells at 10 uM after 48 hrs by SRB assay; assay type: functional; conditions: SW-620, 48 h, read-out: GI
# [17] = Cytotoxicity against human SF268 cells at 10 uM after 48 hrs by SRB assay; assay type: functional; conditions: SF-268, 48 h, read-out: GI
# [18] = Cytotoxicity against human SF539 cells at 10 uM after 48 hrs by SRB assay; assay type: functional; conditions: SF-539, 48 h, read-out: GI
# U-251 = assay: Cytotoxicity against human U251 cells at 10 uM after 48 hrs by SRB assay; assay type: functional
# [19] = Cytotoxicity against human LOXIMVI cells at 10 uM after 48 hrs by SRB assay; assay type: functional; conditions: LOX IMVI, read-out: GI
# Malme-3M = assay: Cytotoxicity against human MALME-3M cells at 10 uM after 48 hrs by SRB assay; assay type: functional
# SK-MEL-5 = assay: Cytotoxicity against human SK-MEL-5 cells at 10 uM after 48 hrs by SRB assay; assay type: functional
# [20] = Cytotoxicity against human OVCAR3 cells at 10 uM after 48 hrs by SRB assay; assay type: functional; conditions: OVCAR-3, 48 h, read-out: GI
# [21] = Cytotoxicity against human OVCAR8 cells at 10 uM after 48 hrs by SRB assay; assay type: functional; conditions: OVCAR-8, 48 h, read-out: GI
# [22] = Cytotoxicity against human SKOV3 cells at 10 uM after 48 hrs by SRB assay; assay type: functional; conditions: SK-OV-3, 48 h, read-out: GI
# A498 = assay: Cytotoxicity against human A498 cells at 10 uM after 48 hrs by SRB assay; assay type: functional
# SK-MEL-2 = assay: Cytotoxicity against human SK-MEL-2 cells at 10 uM after 48 hrs by SRB assay; assay type: functional
smiles,measurement,setting,value
Cc1nc2ccc(Nc3nc(Cl)nc(Nc4ccc(F)cc4)n3)cc2n1Cc1ccccc1,inhibition of growth at 10 µM,[1],15.4%
same,inhibition of growth at 10 µM,SN12C; read-out: GI,53.3%
same,inhibition of growth at 10 µM,[2],5.78%
same,inhibition of growth at 10 µM,"MDA-MB-231; MDA-MB-231, 48 h, read-out: GI",25.9%
same,inhibition of growth at 10 µM,T47D; read-out: GI,63.2%
same,inhibition of growth at 10 µM,"MDA-MB-468; MDA-MB-468, 48 h, read-out: GI",30.3%
same,LC50,CCRF-CEM [3],> 100 µM
same,GI50,CCRF-CEM [3],3.34 µM
same,TGI,CCRF-CEM [3],8.68 µM
same,CC50,[4],> 100 µM
same,LC50,K562,> 100 µM
same,CC50,[5],> 100 µM
same,LC50 (concentration killing 50% of cells),SR [6],> 100 µM
same,GI50,[7],5.92 µM
same,LC50,[7],53.9 µM
same,TGI,[7],18.4 µM
same,GI50,[8],8.1 µM
same,LC50 (concentration killing 50% of cells),[8],78.8 µM
same,TGI,[8],29.8 µM
same,LC50,[9],52.5 µM
same,GI50,[9],8.27 µM
same,TGI,[9],27.7 µM
same,CC50,[10],52.5 µM
same,GI50,MCF7,4.21 µM
same,LC50 (concentration killing 50% of cells),MCF7,75.8 µM
same,TGI,MCF7,11.9 µM
same,IC50,Dihydrofolate reductase,0.31 µM
same,inhibition of growth at 10 µM,CCRF-CEM [11]; read-out: GI,77.1%
same,inhibition of growth at 10 µM,[12],41.1%
same,inhibition of growth at 10 µM,SR [13]; read-out: GI,63.9%
same,inhibition of growth at 10 µM,[14],21.2%
same,inhibition of growth at 10 µM,"NCI-H226; NCI-H226, 48 h, read-out: GI",26.8%
same,inhibition of growth at 10 µM,NCI-H322M,11.9%
same,inhibition of growth at 10 µM,"NCI-H460; NCI-H460, 48 h, read-out: GI",20.1%
same,inhibition of growth at 10 µM,"NCI-H522; NCI-H522, 48 h, read-out: GI",77.5%
same,inhibition of growth at 10 µM,[15],8.82%
same,inhibition of growth at 10 µM,"HT-29; HT-29, 48 h, read-out: GI",15.8%
same,inhibition of growth at 10 µM,"KM12; KM12, 48 h, read-out: GI",27.2%
same,inhibition of growth at 10 µM,[16],17.2%
same,inhibition of growth at 10 µM,[17],24.6%
same,inhibition of growth at 10 µM,[18],1.83%
same,inhibition of growth at 10 µM,"U-251; U-251, 48 h, read-out: GI",30.9%
same,inhibition of growth at 10 µM,[19],64.8%
same,inhibition of growth at 10 µM,Malme-3M; read-out: GI,11.5%
same,inhibition of growth at 10 µM,"SK-MEL-5; SK-MEL-5, 48 h, read-out: GI",30.8%
same,inhibition of growth at 10 µM,[20],5.09%
same,inhibition of growth at 10 µM,[21],57.7%
same,inhibition of growth at 10 µM,[22],2.61%
same,inhibition of growth at 10 µM,"A498; A498, 48 h, read-out: GI",22.2%
Cc1nc2cc(Nc3nc(Nc4ccc(F)cc4)nc(N4CCCC4)n3)ccc2n1Cc1ccccc1,growth inhibition (GI),SN12C,Active
same,growth inhibition (GI),MDA-MB-231,Active
same,growth inhibition (GI),T47D,Active
same,growth inhibition (GI),MDA-MB-468,Active
same,LC50,CCRF-CEM [3],> 100 µM
same,GI50,CCRF-CEM [3],2.54 µM
same,TGI,CCRF-CEM [3],5.28 µM
same,CC50,[4],> 100 µM
same,LC50,K562,> 100 µM
same,CC50,[5],> 100 µM
same,LC50 (concentration killing 50% of cells),SR [6],> 100 µM
same,GI50,[7],1.81 µM
same,LC50,[7],13.7 µM
same,TGI,[7],3.68 µM
same,GI50,[8],1.9 µM
same,LC50 (concentration killing 50% of cells),[8],11 µM
same,TGI,[8],4.01 µM
same,LC50,[9],6 µM
same,GI50,[9],1.82 µM
same,TGI,[9],3.82 µM
same,CC50,[10],6 µM
same,GI50,MCF7,1.98 µM
same,LC50 (concentration killing 50% of cells),MCF7,6.69 µM
same,TGI,MCF7,4.88 µM
same,IC50,Dihydrofolate reductase,0.11 µM
same,growth inhibition (GI),CCRF-CEM [11],Active
same,growth inhibition (GI),SR [13],Active
same,growth inhibition (GI),NCI-H226,Active
same,inhibition of growth at 10 µM,NCI-H322M,78.6%
same,growth inhibition (GI),NCI-H460,Active
same,growth inhibition (GI),NCI-H522,Active
same,growth inhibition (GI),HT-29,Active
same,growth inhibition (GI),KM12,Active
same,growth inhibition (GI),U-251,Active
same,growth inhibition (GI),Malme-3M,Active
same,growth inhibition (GI),SK-MEL-2,Active
same,growth inhibition (GI),SK-MEL-5,Active
same,growth inhibition (GI),A498,Active
